Data: patent publication US20230146870A1, “METHOD TO QUANTIFY AFFINITY AND SELECTIVITY OF SMALL MOLECULES FOR PROTEINS IN LIVING CELLS” (Ohio State Innovation Foundation, priority 2021, published 2023)
“Also recorded” adds a separate entry of the source.

Assays:
murine PKCα-mVenus = murine PKCα-mVenus (Mus musculus, UniProt P20444); assay: FPCBA saturation binding of probe 1, HEK293 cells expressing PKCα-mVenus (Example 3)
[1] = biological target: T1, native (untagged) murine PKCθ (Mus musculus, UniProt Q02111); assay: FPCBA saturation binding of probe 1, native PKCθ (IRES-mVenus) in HEK293 cells
T1 sequence (Q02111 whole entry): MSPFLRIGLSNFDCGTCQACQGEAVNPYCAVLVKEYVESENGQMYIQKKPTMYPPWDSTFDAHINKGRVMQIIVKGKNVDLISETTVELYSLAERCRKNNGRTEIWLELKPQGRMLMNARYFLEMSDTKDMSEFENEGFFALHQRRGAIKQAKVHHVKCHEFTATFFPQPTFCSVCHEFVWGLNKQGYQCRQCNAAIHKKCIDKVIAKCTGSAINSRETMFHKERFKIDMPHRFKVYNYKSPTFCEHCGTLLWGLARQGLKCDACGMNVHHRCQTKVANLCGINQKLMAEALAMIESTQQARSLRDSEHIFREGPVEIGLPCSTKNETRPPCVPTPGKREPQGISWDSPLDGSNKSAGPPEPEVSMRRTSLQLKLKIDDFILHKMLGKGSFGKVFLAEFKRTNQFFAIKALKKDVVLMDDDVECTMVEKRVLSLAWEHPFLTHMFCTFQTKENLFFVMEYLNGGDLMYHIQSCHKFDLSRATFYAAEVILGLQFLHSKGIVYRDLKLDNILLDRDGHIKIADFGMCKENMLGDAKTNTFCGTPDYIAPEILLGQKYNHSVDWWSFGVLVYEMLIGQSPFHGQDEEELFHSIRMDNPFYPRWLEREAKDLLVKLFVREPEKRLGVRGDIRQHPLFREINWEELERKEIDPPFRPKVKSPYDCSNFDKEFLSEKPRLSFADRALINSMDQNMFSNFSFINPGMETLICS

murine PKCγ-mVenus = murine PKCγ-mVenus (Mus musculus, UniProt P63318); assay: FPCBA saturation binding of probe 1, HEK293 cells expressing PKCγ-mVenus (Example 3)
[2] = biological target: native (untagged) murine PKCα (Mus musculus, UniProt P20444); assay: FPCBA saturation binding of probe 1, native PKCα (IRES-mVenus) in HEK293 cells
[3] = biological target: T2, native (untagged) murine PKCζ (Mus musculus, UniProt Q02956); assay: FPCBA saturation binding of probe 1, native PKCζ (IRES-mVenus) in HEK293 cells; conditions: BIM1 2 μM, 2 h at 37° C., 4% FBS
T2 sequence (Q02956 1-592): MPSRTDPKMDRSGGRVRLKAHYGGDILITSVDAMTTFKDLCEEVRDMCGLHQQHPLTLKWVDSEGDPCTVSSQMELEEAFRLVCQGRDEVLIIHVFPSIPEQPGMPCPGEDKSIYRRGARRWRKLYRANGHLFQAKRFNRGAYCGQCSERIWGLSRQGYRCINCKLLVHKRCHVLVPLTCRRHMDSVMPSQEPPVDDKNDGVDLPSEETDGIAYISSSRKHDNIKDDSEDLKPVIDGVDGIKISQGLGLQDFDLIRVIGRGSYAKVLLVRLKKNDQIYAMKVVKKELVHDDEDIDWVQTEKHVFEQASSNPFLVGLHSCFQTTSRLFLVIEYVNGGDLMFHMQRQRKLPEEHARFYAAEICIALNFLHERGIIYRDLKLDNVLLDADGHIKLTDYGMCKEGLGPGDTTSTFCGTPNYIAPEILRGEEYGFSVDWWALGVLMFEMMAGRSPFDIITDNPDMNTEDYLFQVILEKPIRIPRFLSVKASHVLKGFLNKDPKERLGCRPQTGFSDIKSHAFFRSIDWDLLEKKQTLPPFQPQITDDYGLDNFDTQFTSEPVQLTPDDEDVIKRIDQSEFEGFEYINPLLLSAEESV

[4] = biological target: T3, native (untagged) murine PKCε (Mus musculus, UniProt P16054); assay: FPCBA saturation binding of probe 1, native PKCε (IRES-mVenus) in HEK293 cells
T3 sequence (P16054 1-737): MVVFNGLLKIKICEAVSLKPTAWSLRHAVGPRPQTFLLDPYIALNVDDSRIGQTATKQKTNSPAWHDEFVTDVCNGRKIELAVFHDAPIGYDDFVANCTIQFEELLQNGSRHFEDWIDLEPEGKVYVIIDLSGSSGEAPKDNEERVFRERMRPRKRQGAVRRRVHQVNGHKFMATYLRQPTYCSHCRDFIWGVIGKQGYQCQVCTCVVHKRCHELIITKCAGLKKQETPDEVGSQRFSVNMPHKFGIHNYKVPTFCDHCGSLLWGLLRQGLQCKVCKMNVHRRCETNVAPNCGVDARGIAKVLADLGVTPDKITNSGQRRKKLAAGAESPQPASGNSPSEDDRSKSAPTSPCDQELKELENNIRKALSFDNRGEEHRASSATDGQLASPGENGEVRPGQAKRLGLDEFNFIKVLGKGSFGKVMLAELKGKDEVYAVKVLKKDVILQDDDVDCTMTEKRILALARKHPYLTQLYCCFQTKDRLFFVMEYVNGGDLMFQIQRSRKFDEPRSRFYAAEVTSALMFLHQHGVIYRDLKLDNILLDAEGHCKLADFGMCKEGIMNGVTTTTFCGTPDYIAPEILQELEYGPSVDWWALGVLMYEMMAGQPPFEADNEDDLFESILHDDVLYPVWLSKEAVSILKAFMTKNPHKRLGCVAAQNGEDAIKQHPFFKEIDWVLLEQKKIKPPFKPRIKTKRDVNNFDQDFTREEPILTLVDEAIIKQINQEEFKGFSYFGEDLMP

[5] = biological target: T4, native (untagged) murine PKCβI (Mus musculus, UniProt P68404); assay: FPCBA saturation binding of probe 1, native PKCβI (IRES-mVenus) in HEK293 cells
T4 construct: For coexpression of full-length unmodified PKC proteins with mVenus as an independent marker; expressed in transfected cells; host or cells: HEK293 (transient, pIRES-mVenus)
T4 sequence (P68404 2-673 isoform P68404-2): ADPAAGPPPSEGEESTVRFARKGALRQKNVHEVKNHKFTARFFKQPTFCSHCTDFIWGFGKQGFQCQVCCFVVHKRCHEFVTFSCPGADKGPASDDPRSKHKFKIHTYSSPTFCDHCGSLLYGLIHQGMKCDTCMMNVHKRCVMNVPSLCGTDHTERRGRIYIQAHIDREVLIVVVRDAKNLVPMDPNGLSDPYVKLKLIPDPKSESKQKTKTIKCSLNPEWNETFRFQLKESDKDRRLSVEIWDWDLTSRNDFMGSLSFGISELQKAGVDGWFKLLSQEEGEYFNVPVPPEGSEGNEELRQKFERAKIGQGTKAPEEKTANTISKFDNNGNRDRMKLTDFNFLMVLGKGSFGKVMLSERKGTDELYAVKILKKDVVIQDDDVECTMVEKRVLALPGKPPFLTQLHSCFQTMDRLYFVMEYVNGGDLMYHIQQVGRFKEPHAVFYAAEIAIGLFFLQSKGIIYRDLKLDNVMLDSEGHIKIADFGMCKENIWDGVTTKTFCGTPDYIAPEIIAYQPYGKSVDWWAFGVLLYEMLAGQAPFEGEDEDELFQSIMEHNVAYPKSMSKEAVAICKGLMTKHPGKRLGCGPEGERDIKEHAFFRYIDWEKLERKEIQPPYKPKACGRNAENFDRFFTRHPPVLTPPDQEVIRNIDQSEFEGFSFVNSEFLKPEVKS
Text: To measure the binding of 1 and 2 to PKCβI in cells, we used flow cytometry to analyze the blue fluorescence of transfected and non-transfected cells as a function of probe concentration at equilibrium (FIGS. 37A-37F). In these assays, we directly compared the PKCβI-mVenus fusion protein with native PKCβI expressed separately from mVenus. […] This low background signal facilitated saturation binding assays, where non-specific binding of probes to non-transfected cells was subtracted from total binding to highly transfected cells (P2 gate) to measure specific binding. […] We further compared cells treated with and without the orthosteric PKC catalytic inhibitor BIM1 to block the kinase activity of PKC and isolate the analysis of interactions of 1 and 2 with the C1 regulatory domains of PKCbI.

murine PKCδ-mVenus = murine PKCδ-mVenus (Mus musculus, UniProt P28867); assay: FPCBA saturation binding of probe 1, HEK293 cells expressing PKCδ-mVenus (Example 3)
[6] = biological target: T1, native (untagged) murine PKCθ; assay: FPCBA competition with probe 1, native PKCθ in HEK293 cells; type: binding; design: expressed in transfected cells; host or cells: HEK293 (ATCC CRL-1573), transient transfection with pIRES-mVenus carrying the PKC gene; conditions: read-out: Cellular Ki for native PKCθ (95% confidence interval); probe 1 400 nM, BIM1 2 μM, 2 h at 37° C.
PKCη = PKCη (Homo sapiens, UniProt P24723); conditions: radiolabeled PDBu at 4° C.; read-out: Biochemical Ki, PKCη; cited from earlier work
PKCη, sequence (P24723 whole entry): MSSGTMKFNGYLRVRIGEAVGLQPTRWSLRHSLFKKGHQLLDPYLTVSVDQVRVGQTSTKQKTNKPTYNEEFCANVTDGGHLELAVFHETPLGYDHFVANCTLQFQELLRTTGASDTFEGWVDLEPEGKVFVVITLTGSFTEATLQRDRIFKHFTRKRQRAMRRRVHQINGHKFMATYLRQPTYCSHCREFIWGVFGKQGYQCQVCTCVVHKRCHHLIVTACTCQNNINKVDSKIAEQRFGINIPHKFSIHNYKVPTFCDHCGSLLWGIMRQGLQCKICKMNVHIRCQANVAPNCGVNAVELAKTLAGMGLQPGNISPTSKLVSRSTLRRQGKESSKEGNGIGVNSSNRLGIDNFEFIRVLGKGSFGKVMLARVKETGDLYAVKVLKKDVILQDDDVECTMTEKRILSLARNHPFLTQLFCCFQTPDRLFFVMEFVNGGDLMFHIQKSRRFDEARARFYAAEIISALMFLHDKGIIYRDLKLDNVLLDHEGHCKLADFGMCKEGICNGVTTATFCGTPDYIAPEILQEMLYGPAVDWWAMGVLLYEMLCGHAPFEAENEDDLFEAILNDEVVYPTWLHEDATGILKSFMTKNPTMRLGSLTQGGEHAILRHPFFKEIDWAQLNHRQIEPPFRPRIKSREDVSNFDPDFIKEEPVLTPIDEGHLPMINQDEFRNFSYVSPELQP

PKCα = PKCα (Homo sapiens, UniProt P17252); conditions: radiolabeled PDBu at 4° C.; read-out: Biochemical Ki, PKCα; cited from earlier work
PKCθ = PKCθ (Homo sapiens, UniProt Q04759); conditions: radiolabeled PDBu at 4° C.; read-out: Biochemical Ki, PKCθ; cited from earlier work
[7] = biological target: T4, native (untagged) murine PKCβI; assay: FPCBA competition with probe 1, native PKCβI in HEK293 cells; type: binding; conditions: read-out: Cellular Ki for native PKCβI (95% confidence interval); probe 1 400 nM, BIM1 2 μM, 2 h at 37° C.

| SMILES | Kd (murine PKCα-mVenus) [nM] | Kd [1] [nM] | Kd (murine PKCγ-mVenus) [nM] | Kd [2] [nM] | Cellular Kd for probe, native PKCζ [3] | Kd [4] [nM] | affinity of native untagged PKCβI relative to PKCβI-mVenus fusion [5] [fold] | Kd ([5]; IRES-mVenus, BIM1 2 μM, 2 h at 37° C., 4% FBS, read-out: Cellular Kd for probe, native PKCβI) [nM] | Kd (murine PKCδ-mVenus) [nM] | Ki [6] [nM] | Ki (PKCη) [nM] | Ki (PKCα) [nM] | Ki (PKCθ) [nM] | Ki [7] [nM] |
| --- | --- | --- | --- | --- | --- | --- | --- | --- | --- | --- | --- | --- | --- | --- |
| CCCCCCN(CCCCCCCCCCCCNC(=O)c1cc2cc(F)c(O)c(F)c2oc1=O)C(=O)O[C@@]12[C@H](O)[C@@H](C)[C@@]3(O)[C@@H](C=C(CO)C[C@]4(O)C(=O)C(C)=C[C@@H]34)[C@@H]1C2(C)C [probe 1, (1aR,1bS,4aR,7aS,7bS,8R,9R,9aS)-4a,7b,9-trihydroxy-3-(hydroxymethyl)-1,1,6,8-tetramethyl-5-oxo-1,1a,1b,4,4a,5,7a,7b,8,9-decahydro-9aH-cyclopropa[3,4]benzo[1,2-e]azulen-9a-yl (12-(6,8-difluoro-7-hydroxy-2-oxo-2H-chromene-3-carboxamido)dodecyl)(hexyl)carbamate] | 314 ± 37 | 1050 ± 125 | 391 ± 142 | 63 | did not bind; also recorded: No binding | 568 ± 141 | ~2 | 97 | 657 ± 254 |  |  |  |  |  |
| CCC/C=C/C=C/C(=O)O[C@H]1/C(=C/C(=O)OC)C[C@H]2C[C@H]([C@@H](C)O)OC(=O)C[C@H](O)C[C@@H]3C[C@H](OC(C)=O)C(C)(C)[C@](O)(C[C@@H]4C/C(=C/C(=O)OC)C[C@H](/C=C/C(C)(C)[C@]1(O)O2)O4)O3 [bryostatin 1] |  |  |  |  |  |  |  |  |  | 8 | 2.2 | 0.81 | 1.5 | 4 |
